Laboratory results taken from patent US20070203079A1, “Methods of using small molecule compounds for neuroprotection” (priority 2005, published 2007).
Where a name gives a salt, the structure may show the parent alone.

How the values were obtained:
Format in all cases: in vivo, C. elegans
[1] = system: worms containing Punc-54::Q82::GFP+Punc-54::torsinA+Punc54::torsinA (ΔE); experiment: Screen for reduction of polyglutamine protein aggregates in worms with wt and mutant torsinA; settings: differentiated by Q82::GFP lines without torsinA, with wt torsinA or with mutant torsinA
Protocol: C elegans nematodes were grown at 20° C. on NGM plates as described by Brenner (Brenner, Genetics, 1974, 77: 71-94). Several transgenic C. elegans lines were used for primary screens of the Prestwick small molecule library. A transgenic worm line expressing Punc-54::Q82-GFP; with both wild type (“wt”) (Punc=54: :torsinA) or mutant (Punc-54::torsinA(ΔE)). Torsin-A expresses a phenotype that results in visible protein aggregation under fluorescent microscope. Transgenic worms were plated on drug plates and progeny were studied for a return to soluble protein.
Drugs were administered to C. elegans according to a standard procedure (Rand and Johnson, Methods Cell Biol, 1995, 48: 187-204), by mixing the solubilized drug with the agar medium on which the worms are grown. This mode of administration allows the continuous exposure of worms to the drug.
Each drug was first dissolved in an appropriate solvent, followed by adding the drug solution into pre-autoclaved media, with the volume of drug solution already taken into account. […] Each plate was seeded with 100 μl concentrated E. coli OP50 bacteria.
The screening assays used to identify the compounds use protein aggregation readouts to determine the specificities of molecular action. […]
The methods for the aggregate analysis assay are described in Caldwell et al. (Hum Mol Genetics, 2003, 12(3): 307-319). […] MetaMorph Software (Universal Imaging Inc.) was used for pseudocoloration of images, image overlay, and aggregate size quantitation. For each worm line analyzed, average aggregate size was determined by capturing images of all aggregates in the posterior region of 30 L3-staged animals (for Q82::GFP aggregates) or all aggregates in 30 adult animals/day (for Q19::GFP analyses) at 1000× magnification. […]
To see the effect of the candidate compounds on suppressing protein misfolding and aggregation, five gravid adult worms were placed onto each drug plate and grown at 20° C. for approximately 3 days. Thirty Fl worms at L3 stage and young adult stage were counted for aggregate number.

[2] = system: protein misfolding and aggregation in transgenic worms; experiment: Preventative assay of protein aggregation (drug from hatching to L2 stage); settings: exposure from hatching to L2 stage; scored at L3 and young adult
How it was run: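 Transgenic worms were raised on drug plates at 20° C from hatching to L2 (about 3 days), then moved to solvent control plates. Aggregates were counted in L3 worms 8 hours later and in young adults 32 hours later. Scaled effectiveness = […], with A as solvent-only worms, B as lifelong-drug worms and C as pre-L2-exposed worms.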

[3] = system: Pdat-1::GFP+Pdat-1::α-synuclein+Pdat-1::torsinA worms; experiment: α-synuclein toxicity assay, wt torsinA
How it was run: (§1)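 C. elegans lines expressing GFP and α-synuclein in dopamine neurons, with wild-type or ΔE torsinA, exposed to compounds; readout is the share of worms keeping all 4 wild-type CEP dopamine neurons as 4-day adults.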

[4] = system: Pdat-1::GFP+Pdat-1::α-synuclein+Pdat-1:: torsinA (ΔE) worms; experiment: α-synuclein toxicity assay, mutant torsinA
How it was run: as §1

C=N[C@@H](C(=O)N[C@@H]1C(=O)N2[C@@H]1SC(C)(C)[C@@H]2C(=O)O)c1ccccc1 [Compound 235, Metampicillin sodium salt]
Specificity in worm assay [1]: wt torsinA | preventative effect on protein aggregation [2]: seem to be beneficial | enhanced wild type DA neuron survival [3]: 30.3±7% | enhanced DA neuron survival [4]: no significant neuroprotection
